Results taken from patent publication US10040790B2, “Bicyclic heterocycles as FGFR inhibitors” (Incyte Corporation, priority 2013, dated 2018).

What was measured:
Assay type in all cases: biochemical
FGFR3 = FGFR3 (Homo sapiens (Human), UniProt P22607); experiment: FGFR Enzymatic Assay (FRET peptide phosphorylation), FGFR3; details: ATP 140 μM
Procedure: (§1) The inhibitor potency of the exemplified compounds was measured in an enzyme assay that measures peptide phosphorylation using FRET measurements to detect product formation. Inhibitors were serially diluted in DMSO and a volume of 0.5 μL was transferred to the wells of a 384-well plate. For FGFR3, a 10 μL volume of FGFR3 enzyme (Millipore) diluted in assay buffer (50 mM HEPES, 10 mM MgCl2, 1 mM EGTA, 0.01% Tween-20, 5 mM DTT, pH 7.5) was added to the plate and pre-incubated for 5-10 minutes. Appropriate controls (enzyme blank and enzyme with no inhibitor) were included on the plate. The assay was initiated by the addition of a 10 μL solution containing biotinylated EQEDEPEGDYFEWLE peptide substrate (SEQ ID NO: 1) and ATP (final concentrations of 500 nM and 140 μM respectively) in assay buffer to the wells. The plate was incubated at 25° C. for 1 hr. The reactions were ended with the addition of 10 μL/well of quench solution (50 mM Tris, 150 mM NaCl, 0.5 mg/mL BSA, pH 7.8; 30 mM EDTA with Perkin Elmer Lance Reagents at 3.75 nM Eu-antibody PY20 and 180 nM APC-Streptavidin). The plate was allowed to equilibrate for ˜1 hr before scanning the wells on a PheraStar plate reader (BMG Labtech).
(§2) GraphPad prism3 was used to analyze the data. The IC50 values were derived by fitting the data to the equation for a sigmoidal dose-response with a variable slope. Y=Bottom+(Top−Bottom)/(1+10^((Log IC50−X)*HillSlope)) where X is the logarithm of concentration and Y is the response.

FGFR1 = FGFR1 (Homo sapiens (Human), UniProt P11362); experiment: FGFR Enzymatic Assay (FRET peptide phosphorylation), FGFR1; details: ATP 210 μM, enzyme 0.02 nM
Procedure: as §1
(§3) FGFR1 and FGFR2 were measured under equivalent conditions with the following changes in enzyme and ATP concentrations: FGFR1, 0.02 nM and 210 μM, respectively and FGFR2, 0.01 nM and 100 μM, respectively. The enzymes were purchased from Millipore or Invitrogen.
as §2

FGFR2 = FGFR2 (Homo sapiens (Human), UniProt P21802); experiment: FGFR Enzymatic Assay (FRET peptide phosphorylation), FGFR2; details: ATP 100 μM, enzyme 0.01 nM
Procedure: as §1, §3, §2

Measured: IC50

Chain of FGFR1 (P11362 22-822): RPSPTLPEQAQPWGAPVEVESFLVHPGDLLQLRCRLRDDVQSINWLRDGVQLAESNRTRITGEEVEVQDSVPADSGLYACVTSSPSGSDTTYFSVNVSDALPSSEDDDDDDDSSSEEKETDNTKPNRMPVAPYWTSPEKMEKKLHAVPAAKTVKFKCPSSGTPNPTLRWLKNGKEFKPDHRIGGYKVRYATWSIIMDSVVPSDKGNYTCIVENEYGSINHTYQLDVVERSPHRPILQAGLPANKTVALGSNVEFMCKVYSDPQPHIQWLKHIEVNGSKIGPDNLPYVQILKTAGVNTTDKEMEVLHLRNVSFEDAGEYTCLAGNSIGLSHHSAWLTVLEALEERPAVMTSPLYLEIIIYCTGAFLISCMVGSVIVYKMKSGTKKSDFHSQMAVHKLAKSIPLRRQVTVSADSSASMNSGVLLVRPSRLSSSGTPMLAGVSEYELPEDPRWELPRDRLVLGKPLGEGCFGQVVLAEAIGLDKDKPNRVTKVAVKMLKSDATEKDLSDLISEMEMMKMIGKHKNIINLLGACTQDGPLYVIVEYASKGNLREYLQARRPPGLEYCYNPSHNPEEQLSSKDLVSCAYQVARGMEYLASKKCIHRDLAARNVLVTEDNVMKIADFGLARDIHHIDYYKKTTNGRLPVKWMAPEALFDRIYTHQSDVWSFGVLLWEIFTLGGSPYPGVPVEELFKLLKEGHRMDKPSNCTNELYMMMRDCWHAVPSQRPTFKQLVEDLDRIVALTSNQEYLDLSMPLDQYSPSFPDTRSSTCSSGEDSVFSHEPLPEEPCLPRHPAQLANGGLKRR
Chain of FGFR3 (P22607 23-806): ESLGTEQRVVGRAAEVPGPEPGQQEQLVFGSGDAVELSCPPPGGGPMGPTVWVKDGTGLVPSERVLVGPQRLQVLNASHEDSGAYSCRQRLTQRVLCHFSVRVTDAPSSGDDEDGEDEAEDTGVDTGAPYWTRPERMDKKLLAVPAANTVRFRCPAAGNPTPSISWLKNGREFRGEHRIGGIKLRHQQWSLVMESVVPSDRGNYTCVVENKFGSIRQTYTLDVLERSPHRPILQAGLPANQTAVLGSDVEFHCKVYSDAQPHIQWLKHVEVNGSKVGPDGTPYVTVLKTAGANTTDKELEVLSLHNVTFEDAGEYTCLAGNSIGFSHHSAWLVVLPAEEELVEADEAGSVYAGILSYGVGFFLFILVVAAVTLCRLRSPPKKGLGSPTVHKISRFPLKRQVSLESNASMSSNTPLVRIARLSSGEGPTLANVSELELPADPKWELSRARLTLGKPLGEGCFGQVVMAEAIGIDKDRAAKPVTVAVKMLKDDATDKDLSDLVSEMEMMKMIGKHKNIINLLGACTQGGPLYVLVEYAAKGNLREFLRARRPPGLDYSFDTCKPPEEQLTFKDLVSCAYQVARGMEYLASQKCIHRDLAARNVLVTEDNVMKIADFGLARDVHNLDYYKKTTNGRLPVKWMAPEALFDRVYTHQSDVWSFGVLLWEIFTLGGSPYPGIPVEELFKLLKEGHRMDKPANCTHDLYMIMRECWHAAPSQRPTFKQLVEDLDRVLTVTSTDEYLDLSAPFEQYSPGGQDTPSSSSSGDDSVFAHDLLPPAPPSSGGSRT
Chain of FGFR2 (P21802 22-821): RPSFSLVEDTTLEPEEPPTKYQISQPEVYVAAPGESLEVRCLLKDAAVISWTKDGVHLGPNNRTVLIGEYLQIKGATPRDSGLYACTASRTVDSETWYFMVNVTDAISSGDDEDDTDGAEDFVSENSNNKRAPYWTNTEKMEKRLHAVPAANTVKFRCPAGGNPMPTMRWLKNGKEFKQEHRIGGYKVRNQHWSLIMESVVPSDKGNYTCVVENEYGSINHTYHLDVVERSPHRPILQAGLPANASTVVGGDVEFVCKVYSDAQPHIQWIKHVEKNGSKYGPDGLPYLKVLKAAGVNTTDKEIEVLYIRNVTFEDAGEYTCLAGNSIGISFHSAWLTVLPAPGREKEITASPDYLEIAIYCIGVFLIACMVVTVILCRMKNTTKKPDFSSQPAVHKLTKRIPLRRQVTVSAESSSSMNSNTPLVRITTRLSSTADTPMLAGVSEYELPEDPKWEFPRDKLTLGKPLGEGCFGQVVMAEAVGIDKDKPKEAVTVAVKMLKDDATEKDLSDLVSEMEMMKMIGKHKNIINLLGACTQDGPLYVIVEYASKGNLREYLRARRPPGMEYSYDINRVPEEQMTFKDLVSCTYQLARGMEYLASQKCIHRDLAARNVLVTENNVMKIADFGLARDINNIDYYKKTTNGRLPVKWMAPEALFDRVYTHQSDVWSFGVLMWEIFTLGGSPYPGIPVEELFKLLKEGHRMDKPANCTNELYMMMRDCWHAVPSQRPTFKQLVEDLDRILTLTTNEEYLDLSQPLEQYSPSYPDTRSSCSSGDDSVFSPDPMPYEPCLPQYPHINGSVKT

COc1cc(OC)c(F)c(N2Cc3cnc(N)c(-c4cnn(C5CCNCC5)c4)c3N(C)C2=O)c1F [Example 11, 7-amino-3-(2,6-difluoro-3,5-dimethoxyphenyl)-1-methyl-8-(1-piperidin-4-yl-1H-pyrazol-4-yl)-3,4-dihydropyrido[4,3-d]pyrimidin-2(1H)-one]
< 100 nM: all assays above

COc1cc(OC)c(F)c(N2Cc3cnc(N)c(C#N)c3N(C)C2=O)c1F [Example 3, 7-amino-3-(2,6-difluoro-3,5-dimethoxyphenyl)-1-methyl-2-oxo-1,2,3,4-tetrahydropyrido-[4,3-d]pyrimidine-8-carbonitrile]
< 100 nM: all assays above

COc1cc(OC)c(F)c(N2Cc3cnc(N)c(C)c3N(c3nnn(C)n3)C2=O)c1F [Example 46, 7-amino-3-(2,6-difluoro-3,5-dimethoxyphenyl)-8-methyl-1-(2-methyl-2H-tetrazol-5-yl)-3,4-dihydropyrido[4,3-d]pyrimidin-2(1H)-one]
< 100 nM: all assays above

COCCOc1c(N)ncc2c1N(C)C(=O)N(c1c(F)c(OC)cc(OC)c1F)C2 [Example 5, 7-amino-3-(2,6-difluoro-3,5-dimethoxyphenyl)-8-(2-methoxyethoxy)-1-methyl-3,4-dihydro-pyrido[4,3-d]pyrimidin-2(1H)-one]
< 100 nM: all assays above

CCc1c(N)ncc2c1N(C)C(=O)N(c1c(F)c(OC)cc(OC)c1F)C2 [Example 2, 7-amino-3-(2,6-difluoro-3,5-dimethoxyphenyl)-8-ethyl-1-methyl-3,4-dihydropyrido[4,3-d]pyrimidin-2(1H)-one]
< 100 nM: all assays above

COc1cc(OC)c(F)c(N2Cc3cnc(N)c(C)c3N(Cc3cnn(C)c3)C2=O)c1F [Example 47, 7-amino-3-(2,6-difluoro-3,5-dimethoxyphenyl)-8-methyl-1-[(1-methyl-1H-pyrazol-4-yl)methyl]-3,4-dihydropyrido[4,3-d]pyrimidin-2(1H)-one]
< 100 nM: all assays above

COc1cc(OC)c(F)c(N2Cc3cnc(N)c(-c4ccnn4C)c3N(C)C2=O)c1F [Example 13, 7-amino-3-(2,6-difluoro-3,5-dimethoxyphenyl)-1-methyl-8-(1-methyl-1H-pyrazol-5-yl)-3,4-dihydropyrido[4,3-d]pyrimidin-2(1H)-one]
< 100 nM: all assays above

COc1cc(OC)c(F)c(N2Cc3cnc(NC[C@H](C)O)cc3C3(CC3)C2=O)c1F [Example 27, (S)-2′-(2,6-difluoro-3,5-dimethoxyphenyl)-6′-(2-hydroxypropylamino)-1′H-spiro[cyclopropane-1,4′-[2,7]naphthyridin]-3′(2′H)-one]
< 100 nM: all assays above

COc1cc(OC)c(F)c(N2Cc3cnc(NC4CC(F)(F)C4)cc3C3(CC3)C2=O)c1F [Example 43, 2′-(2,6-difluoro-3,5-dimethoxyphenyl)-6′-(3,3-difluorocyclobutylamino)-1′H-spiro[cyclopropane-1,4′-[2,7]naphthyridin]-3′(2′H)-one]
< 100 nM: all assays above

CNc1cc2c(cn1)CN(c1c(F)c(OC)cc(OC)c1F)C(=O)C21CC1 [Example 25, 2′-(2,6-difluoro-3,5-dimethoxyphenyl)-6′-(methylamino)-1′,2′-dihydro-3′H-spiro[cyclopropane-1,4′-[2,7]naphthyridin]-3′-one]
< 100 nM: all assays above

COc1cc(OC)c(F)c(N2Cc3cnc(N)c(C#N)c3N(C3CCCC3)C2=O)c1F [Example 50, 7-amino-1-cyclopentyl-3-(2,6-difluoro-3,5-dimethoxyphenyl)-2-oxo-1,2,3,4-tetrahydropyrido[4,3-d]pyrimidine-8-carbonitrile]
< 100 nM: all assays above

COc1cc(OC)c(F)c(N2Cc3cnc(NC4CCOCC4)cc3C3(CC3)C2=O)c1F [Example 26, 2′-(2,6-difluoro-3,5-dimethoxyphenyl)-6′-(tetrahydro-2H-pyran-4-ylamino)-1′,2′-dihydro-3′H-spiro[cyclopropane-1,4′-[2,7]naphthyridin]-3′-one]
< 100 nM: all assays above

COc1cc(OC)c(F)c(N2Cc3cnc(Nc4cnn(C)c4)cc3C3(CC3)C2=O)c1F [Example 36, 2′-(2,6-difluoro-3,5-dimethoxyphenyl)-6′-(1-methyl-1H-pyrazol-4-ylamino)-1′H-spiro[cyclopropane-1,4′-[2,7]naphthyridin]-3′(2′H)-one]
< 100 nM: all assays above

COc1cc(OC)c(F)c(N2Cc3cnc(NC4CCC4)cc3C3(CC3)C2=O)c1F [Example 42, 6′-(cyclobutylamino)-2′-(2,6-difluoro-3,5-dimethoxyphenyl)-1′H-spiro[cyclopropane-1,4′-[2,7]naphthyridin]-3′(2′H)-one]
< 100 nM: all assays above

COc1cc(OC)c(F)c(N2Cc3cnc(N)c(/C=C/c4ccccc4)c3N(C)C2=O)c1F [Example 18, 7-amino-3-(2,6-difluoro-3,5-dimethoxyphenyl)-1-methyl-8-[(E)-2-phenylvinyl]-3,4-dihydropyrido[4,3-d]pyrimidin-2(1H)-one]
< 100 nM: all assays above

COc1cc(OC)c(F)c(N2Cc3cnc(Nc4cccc(F)c4)cc3C3(CC3)C2=O)c1F [Example 33, 2′-(2,6-difluoro-3,5-dimethoxyphenyl)-6′-(3-fluorophenylamino)-1′H-spiro[cyclopropane-1,4′-[2,7]naphthyridin]-3′(2′H)-one]
< 100 nM: all assays above

COc1cc(OC)c(F)c(N2Cc3cnc(N)c(CCc4ccccc4)c3N(C)C2=O)c1F [Example 19, 7-amino-3-(2,6-difluoro-3,5-dimethoxyphenyl)-1-methyl-8-phenylethyl-3,4-dihydropyrido-[4,3-d]pyrimidin-2(1H)-one]
< 100 nM: all assays above

COc1cc(OC)c(F)c(N2Cc3cnc(N)c(-c4cnn(CCO)c4)c3N(C)C2=O)c1F [Example 10, 7-amino-3-(2,6-difluoro-3,5-dimethoxyphenyl)-8-[1-(2-hydroxyethyl)-1H-pyrazol-4-yl]-1-methyl-3,4-dihydropyrido[4,3-d]pyrimidin-2(1H)-one]
< 100 nM: all assays above
